Where two headings read alike, the source gives them in different places.
Key:
[1] = target: inactive non-phosphorylated p38α MAPK (Homo sapiens (Human), UniProt Q16539); assay: Fluorescence polarisation (FP) binding assay, inactive enzyme
Experimental: (§1) A number of compounds were also assessed for the inhibition of p38α MAPK activity (www.kinase-screen.mrc.ac.uk) in which a radioactive (^33P-labelled ATP) filter binding assay was used to directly measure phosphate incorporation. Table 1 summarises the binding affinities of the synthesised compounds to both forms of the enzyme as well as the inhibitory activities against p38α MAPK. By way of enabling a comparison with a non-thiophene compound the biological testing was also carried out for known inhibitor RWJ67657, shown in table 1.
(§2) FP signals were measured with a PHERAstar microplate reader (BMG Labtech) using black, low-binding half-area 96 well plates (Corning). Each binding data point was carried out in duplicate or triplicate. Data were recorded in millipolarisation (mP) units and measured at an excitation wavelength of 485 nm and an emission wavelength of 520 nm. Tris(hydroxymethyl)aminomethane (Tris) assay buffer was used in all binding experiments and consisted of 10 mM Tris, […] potassium chloride, and 3.5 mM 3-((3-cholamidopropyl)dimethylammonium)-1-propanesulfonate (Chaps) at pH 8.0.
(§3) Test compounds were prepared from dimethylsulfoxide stocks (10 mM). […] Plates were incubated at room temperature for 1 hour and FP signals were recorded. For binding experiments to active p38α MAPK, the FP signals were recorded after 2 hours incubation at room temperature. Data is represented as mean±SEM from two to three independent experiments.

[2] = target: active phosphorylated p38α MAPK (Homo sapiens (Human), UniProt Q16539); assay: Fluorescence polarisation (FP) binding assay, active enzyme
Experimental: as §1, §2, §3

[3] = Table 6, read-out: Ki ± SEM (μM) to inactive p38α
[4] = Table 6, read-out: Ki ± SEM (μM) to active p38α
[5] = Table 5, read-out: Ki ± SEM (μM) to inactive p38α MAPK
[6] = Table 5, read-out: Ki ± SEM (μM) to active p38α MAPK
[7] = read-out: Ki to active p38α MAPK

Sequence of active phosphorylated p38α MAPK (Q16539 whole entry): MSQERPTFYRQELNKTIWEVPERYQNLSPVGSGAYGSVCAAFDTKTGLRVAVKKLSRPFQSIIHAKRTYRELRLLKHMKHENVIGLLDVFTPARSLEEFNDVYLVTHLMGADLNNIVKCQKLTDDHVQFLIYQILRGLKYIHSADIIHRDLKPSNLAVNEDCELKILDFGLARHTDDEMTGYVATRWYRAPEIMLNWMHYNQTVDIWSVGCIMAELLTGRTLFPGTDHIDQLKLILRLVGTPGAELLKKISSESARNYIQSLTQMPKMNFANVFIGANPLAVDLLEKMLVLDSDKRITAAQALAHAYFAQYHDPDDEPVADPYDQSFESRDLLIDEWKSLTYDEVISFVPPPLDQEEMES
Sequence of inactive non-phosphorylated p38α MAPK (Q16539 whole entry): as above

Compound | Ki [1, 3] [µM] | Ki [2, 4] [µM] | Ki [1, 5] [µM] | Ki [2, 6] [µM] | further results
Cc1ccc(S(=O)(=O)Nc2cccc(-c3c(C#CCCO)sc(-c4ccc(F)cc4)c3-c3ccncc3)c2)cc1 [Compound 3.45, N-(3-(5-(4-fluorophenyl)-2-(4-hydroxybut-1-yn-1-yl)-4-(pyridin-4-yl)thiophen-3-yl)phenyl)-4-methylbenzenesulfonamide] | > 10 | > 10 | – | – | –
OCCC#Cc1sc(-c2ccc(F)cc2)c(-c2ccncc2)c1-c1ccc(Cl)cc1 [Compound 3.51, 4-(3-(4-Chlorophenyl)-5-(4-fluorophenyl)-4-(pyridin-4-yl)thiophen-2-yl)but-3-yn-1-ol] | > 10 | > 10 | – | – | –
Nc1cccc(-c2c(C#CCCO)sc(-c3ccc(F)cc3)c2-c2ccncc2)c1 [Compound 3.39, 4-(3-(3-Aminophenyl)-5-(4-fluorophenyl)-4-(pyridin-4-yl)thiophen-2-yl)but-3-yn-1-ol] | > 10 | 3.2 | – | – | –
CC(=O)Nc1ccc(-c2c(C#CCCO)sc(-c3ccc(F)cc3)c2-c2ccncc2)cc1 [Compound 3.42, N-(4-(5-(4-fluorophenyl)-2-(4-hydroxybut-1-yn-1-yl)-4-(pyridin-4-yl)thiophen-3-yl)phenyl)acetamide] | > 10 | > 10 | – | – | –
O=C(Nc1cccc(-c2c(C#CCCO)sc(-c3ccc(F)cc3)c2-c2ccncc2)c1)c1ccccc1 [Compound 3.43, N-(3-(5-(4-fluorophenyl)-2-(4-hydroxybut-1-yn-1-yl)-4-(pyridin-4-yl)thiophen-3-yl)phenyl)benzamide] | > 10 | > 10 | – | – | –
OCCC#Cc1sc(-c2ccc(F)cc2)c(-c2ccncc2)c1-c1ccc(CO)cc1 [Compound 3.34, 4-(5-(4-Fluorophenyl)-3-(4-(hydroxymethyl)phenyl)-4-(pyridin-4-yl)thiophen-2-yl)but-3-yn-1-ol] | > 10 | 3.5 | – | – | –
CN(C)c1ccc(-c2c(C#CCCO)sc(-c3ccc(F)cc3)c2-c2ccncc2)cc1 [Compound 3.49, 4-(3-(4-(Dimethylamino)phenyl)-5-(4-fluorophenyl)-4-(pyridin-4-yl)thiophen-2-yl)but-3-yn-1-ol] | > 10 | > 10 | – | – | –
Fc1ccc(-c2scc(C#CCc3ccccc3)c2-c2ccncc2)cc1 [Compound 4.19, 4-(2-(4-Fluorophenyl)-4-(3-phenylprop-1-yn-1-yl)thiophen-3-yl)pyridine] | > 10 | 9.4 | – | – | binding to p38α MAPK, in words [1]: complete loss of binding; Ki ([1]; Table 1, read-out: Ki (μM, mean ± SEM) inactive p38α): > 10 µM; Ki ([2]; Table 1, read-out: Ki (μM, mean ± SEM) active p38α): 9.44 µM
O=C(NCCO)c1cccc(-c2c(C#CCCO)sc(-c3ccc(F)cc3)c2-c2ccncc2)c1 [Compound 3.37, 3-(5-(4-Fluorophenyl)-2-(4-hydroxybut-1-yn-1-yl)-4-(pyridin-4-yl)thiophen-3-yl)-N-(2-hydroxyethyl)benzamide] | 1.9 ± 0.2 | 2 ± 1 | – | – | –
Cc1cccc(-c2c(C#CCCO)sc(-c3ccc(F)cc3)c2-c2ccncc2)c1 [Compound 3.48, 4-(5-(4-Fluorophenyl)-4-(pyridin-4-yl)-3-(m-tolyl)thiophen-2-yl)but-3-yn-1-ol] | > 10 | > 10 | – | – | –
O=C(Nc1ccc(-c2c(C#CCCO)sc(-c3ccc(F)cc3)c2-c2ccncc2)cc1)c1ccccc1 [Compound 3.44, N-(4-(5-(4-fluorophenyl)-2-(4-hydroxybut-1-yn-1-yl)-4-(pyridin-4-yl)thiophen-3-yl)phenyl)benzamide] | > 10 | > 10 | – | – | –
Nc1ccc(-c2c(C#CCCO)sc(-c3ccc(F)cc3)c2-c2ccncc2)cc1 [Compound 3.40, 4-(3-(4-Aminophenyl)-5-(4-fluorophenyl)-4-(pyridin-4-yl)thiophen-2-yl)but-3-yn-1-ol] | > 10 | > 10 | – | – | –

Now from value to compound, other results behind:

Ki [1, 3] [µM] | Ki [2, 4] [µM] | Ki [1, 5] [µM] | Ki [2, 6] [µM] | Compound | further results
> 10 | > 10 | – | – | Fc1ccc(-c2sc(I)c(I)c2-c2ccncc2)cc1 [Compound 3.3, 4-(2-(4-Fluorophenyl)-4,5-diiodothiophen-3-yl)pyridine] | –
> 10 | 2.2 ± 0.3 | – | – | NC(=O)c1cccc(-c2c(C#CCCO)sc(-c3ccc(F)cc3)c2-c2ccncc2)c1 [Compound 3.35, 3-(5-(4-Fluorophenyl)-2-(4-hydroxybut-1-yn-1-yl)-4-(pyridin-4-yl)thiophen-3-yl)benzamide] | –
6.3 ± 0.4 | 0.9 ± 0.1 | 6.3 ± 0.4 | 0.9 ± 0.1 | O=C(c1cc(-c2ccncc2)c(-c2ccc(F)cc2)s1)N1CCNCC1 [Compound 5.14, (5-(4-Fluorophenyl)-4-(pyridin-4-yl)thiophen-2-yl) (piperazin-1-yl)methanone] | –
17 ± 2 | 1.4 | 17 ± 2 | 1.4 | O=C(O)c1cc(-c2ccncc2)c(-c2ccc(F)cc2)s1 [Compound 5.12, 5-(4-Fluorophenyl)-4-(pyridin-4-yl)thiophene-2-carboxylic acid] | –
> 10 | – | > 10 | – | NCC#Cc1cc(-c2ccncc2)c(-c2ccc(F)cc2)s1 [Compound 5.6, 3-(5-(4-Fluorophenyl)-4-(pyridin-4-yl)thiophen-2-yl)prop-2-yn-1-amine] | –
3.01 ± 0.03 | 0.8 ± 0.1 | 3.01 ± 0.03 | 0.8 ± 0.1 | Fc1ccc(-c2sc(-c3c(F)c(F)nc(F)c3F)cc2-c2ccncc2)cc1 [Compound 5.19, 2,3,5,6-Tetrafluoro-4-(5-(4-fluorophenyl)-4-(pyridin-4-yl)thiophen-2-yl)pyridine] | Ki [2, 7]: 0.8 µM
> 10 | 2 ± 1 | – | – | NC(=O)c1ccc(-c2c(C#CCCO)sc(-c3ccc(F)cc3)c2-c2ccncc2)cc1 [Compound 3.36, 4-(5-(4-Fluorophenyl)-2-(4-hydroxybut-1-yn-1-yl)-4-(pyridin-4-yl)thiophen-3-yl)benzamide] | –
6.4 ± 0.6 | 1.4 | 6.4 ± 0.6 | 1.4 | CC(=O)c1cc(-c2ccncc2)c(-c2ccc(F)cc2)s1 [Compound 5.15, 1-(5-(4-Fluorophenyl)-4-(pyridin-4-yl)thiophen-2-yl)ethanone] | –
2.6 ± 0.6 | 2 ± 0.1 | – | – | CC(=O)Nc1cccc(-c2c(C#CCCO)sc(-c3ccc(F)cc3)c2-c2ccncc2)c1 [Compound 3.41, N-(3-(5-(4-fluorophenyl)-2-(4-hydroxybut-1-yn-1-yl)-4-(pyridin-4-yl)thiophen-3-yl)phenyl)acetamide] | –
> 10 | 3.4 | – | – | OCCC#Cc1sc(-c2ccc(F)cc2)c(-c2ccncc2)c1-c1ccc(O)cc1 [Compound 3.54, 4-(5-(4-Fluorophenyl)-2-(4-hydroxybut-1-yn-1-yl)-4-(pyridin-4-yl)thiophen-3-yl)phenol] | –
> 10 | 3 | – | – | COC(=O)c1cccc(-c2c(C#CCCO)sc(-c3ccc(F)cc3)c2-c2ccncc2)c1 [Compound 3.29, Methyl 3-(5-(4-fluorophenyl)-2-(4-hydroxybut-1-yn-1-yl)-4-(pyridin-4-yl)thiophen-3-yl)benzoate] | –
> 10 | > 10 | – | – | O=C(O)c1ccc(-c2c(C#CCCO)sc(-c3ccc(F)cc3)c2-c2ccncc2)cc1 [Compound 3.32, 4-(5-(4-Fluorophenyl)-2-(4-hydroxybut-1-yn-1-yl)-4-(pyridin-4-yl)thiophen-3-yl)benzoic acid] | –
> 10 | 2.2 ± 0.3 | – | – | CC(=O)c1ccc(-c2c(C#CCCO)sc(-c3ccc(F)cc3)c2-c2ccncc2)cc1 [Compound 3.53, 1-(4-(5-(4-Fluorophenyl)-2-(4-hydroxybut-1-yn-1-yl)-4-(pyridin-4-yl)thiophen-3-yl)phenyl)ethanone] | –
1.7 ± 0.2 | 0.8 ± 0.04 | 1.7 ± 0.2 | 0.8 ± 0.04 | OCCCC#Cc1cc(-c2ccncc2)c(-c2ccc(F)cc2)s1 [Compound 5.3, 5-(5-(4-Fluorophenyl)-4-(pyridin-4-yl)thiophen-2-yl)pent-4-yn-1-ol] | –
6 ± 1 | 2.2 | 6 ± 1 | 2.2 | CCOC(=O)c1cc(-c2ccncc2)c(-c2ccc(F)cc2)s1 [Compound 5.11, Ethyl 5-(4-fluorophenyl)-4-(pyridin-4-yl)thiophene-2-carboxylate] | –
2.2 ± 0.2 | 2.5 | 2.2 ± 0.2 | 2.5 | Fc1ccc(-c2sc(C#CCCN3CCOCC3)cc2-c2ccncc2)cc1 [Compound 5.8, 4-(4-(5-(4-Fluorophenyl)-4-(pyridin-4-yl)thiophen-2-yl)but-3-yn-1-yl)morpholine] | Ki [2, 7]: 2.5 µM
5.9 ± 0.7 | 2.5 | 5.9 ± 0.7 | 2.5 | O=C(c1ccco1)c1cc(-c2ccncc2)c(-c2ccc(F)cc2)s1 [Compound 5.17, (5-(4-Fluorophenyl)-4-(pyridin-4-yl)thiophen-2-yl) (furan-2-yl)methanone] | –
> 10 | 1.7 | > 10 | 1.7 | Fc1ccc(-c2sc(-c3ccco3)cc2-c2ccncc2)cc1 [Compound 5.18, 4-(2-(4-Fluorophenyl)-5-(furan-2-yl)thiophen-3-yl)pyridine] | –
